Reference: patent publication US9884832B2 (priority 2011, dated 2018)
Like-named read-outs stand apart in the source and are kept apart here.

How the values were obtained:
[1] = target: AM2 S31N (serine→asparagine mutation at residue 31 in the M2 protein) (Influenza A virus, UniProt P0DOF5, S31N); assay type: cell-based, influenza virus A/Udorn/72
[2] = target: AM2 V27A (valine→alanine mutation at residue 27 in the M2 protein) (Influenza A virus, UniProt P0DOF5, V27A); assay type: cell-based, influenza virus A/Udorn/72

| Structure (SMILES) | S31N OOcyte Inhibition at 100 uM (%) ([1]; pH 5.5) | V27A OOcyte Inhibition at 100 uM (%) ([2]; pH 5.5) | S31N OOcyte Inhibition at 100 uM (%) [1] | V27A OOcyte Inhibition at 100 uM (%) [2] |
| --- | --- | --- | --- | --- |
| c1cc(COc2ccc(CNC34CC5CC(CC(C5)C3)C4)cc2)co1 [Example 22, Adamantan-1-yl-[4-(furan-3-ylmethoxy)-benzyl]-amine] | A (key: (A)=31-95%; (B)=0-30%) | B (key: (A)=31-95%; (B)=0-30%) | – | – |
| COc1cc(O)cc(OC)c1CNC12CC3CC(CC(C3)C1)C2 [Example 66, 4-(Adamantan-1-ylaminomethyl)-3,5-dimethoxy-phenol] | B (key: (A)=31-95%; (B)=0-30%) | B (key: (A)=31-95%; (B)=0-30%) | – | – |
| OC12CC3CC(C1)CC(NCc1ccc(-c4ccccc4)s1)(C3)C2 [Example 191a, 3-[(5-Phenyl-thiophen-2-ylmethyl)-amino]adamantan-1-ol] | – | – | A (key: (A)=31-95%; (B)=0-30%) | B (key: (A)=31-95%; (B)=0-30%) |
| CC1(C)CCC(NCc2ccc(O)cc2O)CC1 [Example 108, 4-[(4,4-Dimethyl-cyclohexylamino)-methyl]-benzene-1,3-diol] | B (key: (A)=31-95%; (B)=0-30%) | B (key: (A)=31-95%; (B)=0-30%) | – | – |
| Brc1ccc(CNC23CC4CC(CC(C4)C2)C3)s1 [Example 81a, N-((5-Bromothiophen-2-yl)methyl)adamantan-1-amine] | – | – | A (key: (A)=31-95%; (B)=0-30%) | B (key: (A)=31-95%; (B)=0-30%) |
| Cn1cc(C(F)(F)F)c(-c2ccc(CNC34CC5CC(CC(C5)C3)C4)s2)n1 [Example 155a, N-((5-(1-methyl-4-(trifluoromethyl)-1H-pyrazol-3-yl)thiophen-2-yl)methyl)adamantan-1-amine] | – | – | B (key: (A)=31-95%; (B)=0-30%) | B (key: (A)=31-95%; (B)=0-30%) |
| c1cn2cc(CNC34CC5CC(CC(C5)C3)C4)nc2s1 [Example 86, Adamantan-1-yl-imidazo[2,1-b]thiazol-6-ylmethyl-amine] | A (key: (A)=31-95%; (B)=0-30%) | B (key: (A)=31-95%; (B)=0-30%) | – | – |
| c1cc2cn[nH]c2cc1CNC12CC3CC(CC(C3)C1)C2 [Example 95, Adamantan-1-yl-(1H-indazol-6-ylmethyl)-amine] | B (key: (A)=31-95%; (B)=0-30%) | A (key: (A)=31-95%; (B)=0-30%) | – | – |
| Brc1ccc(CNC23CC4CC(CC(C4)C2)C3)cc1 [Example 41, N-(4-Bromobenzyl)adamantan-1-amine] | A (key: (A)=31-95%; (B)=0-30%) | B (key: (A)=31-95%; (B)=0-30%) | – | – |
| CC(=O)c1sccc1-c1ccc(CNC23CC4CC(CC(C4)C2)C3)cc1 [Example 43, 1-(3-(4-((Adamantan-1-ylamino)methyl)phenyl)thiophen-2-yl)ethanone] | A (key: (A)=31-95%; (B)=0-30%) | A (key: (A)=31-95%; (B)=0-30%) | – | – |
| c1cc2cc(CNC34CC5CC(CC(C5)C3)C4)sc2s1 [Example 79, Adamantan-1-yl-thieno[2,3-b]thiophen-2-ylmethyl-amine] | A (key: (A)=31-95%; (B)=0-30%) | B (key: (A)=31-95%; (B)=0-30%) | – | – |
| CSc1ccc(-c2ccc(CNC34CC5CC(CC(C5)C3)C4)s2)cc1 [Example 112a, N-((5-(4-(methylthio)phenyl)thiophen-2-yl)methyl)adamantan-1-amine] | – | – | A (key: (A)=31-95%; (B)=0-30%) | B (key: (A)=31-95%; (B)=0-30%) |
| c1cc2[nH]c(CNC34CC5CC(CC(C5)C3)C4)cc2s1 [Example 80, Adamantan-1-yl-(4H-thieno[3,2-b]pyrrol-5-ylmethyl)-amine] | A (key: (A)=31-95%; (B)=0-30%) | B (key: (A)=31-95%; (B)=0-30%) | – | – |
| c1ccc(CNC23CC4CC(CC(C4)C2)C3)nc1 [Example 72, Adamantan-1-yl-pyridin-2-ylmethyl-amine] | B (key: (A)=31-95%; (B)=0-30%) | B (key: (A)=31-95%; (B)=0-30%) | – | – |
| Oc1ccc(CN2CCC3(CCCCC3)CC2)c(O)c1 [Example 115, 4-(3-Aza-spiro[5.5]undec-3-ylmethyl)-benzene-1,3-diol] | B (key: (A)=31-95%; (B)=0-30%) | B (key: (A)=31-95%; (B)=0-30%) | – | – |
| Oc1ccc(CNC2C3CC4CC(C3)CC2C4)cc1O (stereo not drawn) [Example 101, 4-(Adamantan-2-ylaminomethyl)-benzene-1,2-diol] | B (key: (A)=31-95%; (B)=0-30%) | B (key: (A)=31-95%; (B)=0-30%) | – | – |
| Cc1nc(CNC23CC4CC(CC(C4)C2)C3)c[nH]1 [Example 99a, N-((2-methyl-1H-imidazol-4-yl)methyl)adamantan-1-amine] | – | – | B (key: (A)=31-95%; (B)=0-30%) | B (key: (A)=31-95%; (B)=0-30%) |

| Structure (SMILES) | S31N OOcyte Inhibition at 100 uM (%) ([1]; pH 5.5) | V27A OOcyte Inhibition at 100 uM (%) ([2]; pH 5.5) | S31N OOcyte Inhibition at 100 uM (%) [1] | V27A OOcyte Inhibition at 100 uM (%) [2] |
| --- | --- | --- | --- | --- |
| C[Si](C)(C)CCCNCc1ccc(O)cc1O [Example 113, 4-[(3-Trimethylsilanyl-propylamino)-methyl]-benzene-1,3-diol] | B (key: (A)=31-95%; (B)=0-30%) | B (key: (A)=31-95%; (B)=0-30%) | – | – |
| Oc1ccc(/C=N/C23CC4CC(CC(C4)C2)C3)c(O)c1 [Example 7] | B (key: (A)=31-95%; (B)=0-30%) | A (key: (A)=31-95%; (B)=0-30%) | – | – |
| c1nc(-c2ccc(CNC34CC5CC(CC(C5)C3)C4)cc2)no1 [Example 40, Adamantan-1-yl-(4-[1,2,4]oxadiazol-3-yl-benzyl)-amine] | A (key: (A)=31-95%; (B)=0-30%) | B (key: (A)=31-95%; (B)=0-30%) | – | – |
| Cc1ccc(-c2ccc(CNC34CC5CC(CC(C5)C3)C4)s2)s1 [Example 141a, N-((5′-methyl-[2,2′-bithiophen]-5-yl)methyl)adamantan-1-amine] | – | – | A (key: (A)=31-95%; (B)=0-30%) | B (key: (A)=31-95%; (B)=0-30%) |
| Clc1ccc(/C=C/CNC23CC4CC(CC(C4)C2)C3)cc1 [Example 200a, N-((E)-3-(4-chlorophenyl)allyl)adamantan-1-amine] | – | – | A (key: (A)=31-95%; (B)=0-30%) | B (key: (A)=31-95%; (B)=0-30%) |
| Oc1ccccc1CNC12CC3CC(CC(C3)C1)C2 [Example 28, 2-(Adamantan-1-ylaminomethyl)-phenol] | B (key: (A)=31-95%; (B)=0-30%) | B (key: (A)=31-95%; (B)=0-30%) | – | – |
| Oc1ccc(CNC23CC4CC(CC(C4)C2)C3)cc1Cl [Example 47, 4-(Adamantan-1-ylaminomethyl)-2-chloro-phenol] | B (key: (A)=31-95%; (B)=0-30%) | A (key: (A)=31-95%; (B)=0-30%) | – | – |
| Brc1nc(CNC23CC4CC(CC(C4)C2)C3)cs1 [Example 83a, N-((2-bromothiazol-4-yl)methyl)adamantan-1-amine] | – | – | A (key: (A)=31-95%; (B)=0-30%) | B (key: (A)=31-95%; (B)=0-30%) |
| Oc1cc(OCc2ccccc2)ccc1CNC12CC3CC(CC(C3)C1)C2 [Example 57, 2-(Adamantan-1-ylaminomethyl)-5-benzyloxy-phenol] | A (key: (A)=31-95%; (B)=0-30%) | B (key: (A)=31-95%; (B)=0-30%) | – | – |
| c1coc(-c2cc(CNC34CC5CC(CC(C5)C3)C4)no2)c1 [Example 153a, N-((5-(furan-2-yl)isoxazol-3-yl)methyl)adamantan-1-amine] | – | – | A (key: (A)=31-95%; (B)=0-30%) | B (key: (A)=31-95%; (B)=0-30%) |
| c1cc(-c2ccc(CNC34CC5CC(CC(C5)C3)C4)s2)[nH]n1 [Example 158a, N-((5-(1H-pyrazol-5-yl)thiophen-2-yl)methyl)adamantan-1-amine] | – | – | A (key: (A)=31-95%; (B)=0-30%) | A (key: (A)=31-95%; (B)=0-30%) |
| c1cc(CNC23CC4CC(CC(C4)C2)C3)cs1 [Example 68a, Adamantan-1-yl-thiophen-3-ylmethyl-amine] | – | – | B (key: (A)=31-95%; (B)=0-30%) | A (key: (A)=31-95%; (B)=0-30%) |
| c1csc(-c2ccc(CNC34CC5CC(CC(C5)C3)C4)s2)c1 [Example 78, N-([2,2′-Bithiophen]-5-ylmethyl)adamantan-1-amine] | A (key: (A)=31-95%; (B)=0-30%) | B (key: (A)=31-95%; (B)=0-30%) | – | – |
| c1c(CNC2C3CC4CC(C3)CC2C4)nc2n1CCS2 (stereo not drawn) [Example 105, Adamantan-2-yl-(2,3-dihydro-imidazo[2,1-b]thiazol-6-ylmethyl)-amine] | B (key: (A)=31-95%; (B)=0-30%) | B (key: (A)=31-95%; (B)=0-30%) | – | – |
| C(=C\c1ccccc1)/CNC12CC3CC(CC(C3)C1)C2 [Example 199a, N-cinnamyladamantan-1-amine] | – | – | A (key: (A)=31-95%; (B)=0-30%) | B (key: (A)=31-95%; (B)=0-30%) |
| Oc1cc(F)c(CNC23CC4CC(CC(C4)C2)C3)c(F)c1 [Example 69, 4-(Adamantan-1-ylaminomethyl)-3,5-difluoro-phenol] | B (key: (A)=31-95%; (B)=0-30%) | A (key: (A)=31-95%; (B)=0-30%) | – | – |
